Tests used:
Type in all cases: in vivo
[1] = tested on: redroot pigweed (Amaranthus retroflexus); test: Test G Pre-Emergence Protocol; conditions: Amaranthus retroflexus, pre-emergence, 312 h, evaluated after 13 days; for pest or weed control at 15.625 g/ha: 15.625 g ai/ha; for pest or weed control at 15.625 g/ha / pest or weed control at 250 g/ha: read-out: Pigweed, Redroot damage rating (100=total damage to plant; 0=no damage to plant); for pest or weed control at 62.5 g/ha: 62.5 g ai/ha, 100=total damage to plant, 0=no damage to plant, read-out: plant damage rating, Pigweed, Redroot; for pest or weed control at 250 g/ha: 250 g ai/ha
Procedure, shortened: (§1)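 Spraying took place one day after sowing, at 15.625, 62.5 or 250 g/ha, using an acetone/water (50:50) spray solution containing 0.5% Tween 20. Plants were kept under glasshouse conditions (24/16 °C, 14 h light, 65% humidity, watered twice daily), and injury was rated 0–100 at day 13.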

[2] = tested on: velvetleaf (Abutilon theophrasti); test: Test G Pre-Emergence Protocol; conditions: Abutilon theophrasti, pre-emergence, 312 h, evaluated after 13 days; for pest or weed control at 15.625 g/ha: 15.625 g ai/ha; for pest or weed control at 15.625 g/ha / pest or weed control at 250 g/ha: read-out: Velvetleaf damage rating (100=total damage to plant; 0=no damage to plant); for pest or weed control at 62.5 g/ha: 62.5 g ai/ha, 100=total damage to plant, 0=no damage to plant, read-out: plant damage rating, Velvetleaf; for pest or weed control at 250 g/ha: 250 g ai/ha
Procedure, shortened: as §1

[3] = tested on: corn (Zea mays); test: Test G Pre-Emergence Protocol; conditions: Zea mays, pre-emergence, 312 h, evaluated after 13 days; for plant injury at 15.625 g/ha: 15.625 g ai/ha; for plant injury at 15.625 g/ha / plant injury at 250 g/ha: read-out: Corn damage rating (100=total damage to plant; 0=no damage to plant); for plant injury at 62.5 g/ha: 62.5 g ai/ha, 100=total damage to plant, 0=no damage to plant, read-out: plant damage rating, Corn; for plant injury at 250 g/ha: 250 g ai/ha
Procedure, shortened: as §1

[4] = tested on: ivy-leaved morning glory (Ipomoea hederacea); test: Test G Pre-Emergence Protocol; conditions: Ipomoea, pre-emergence, 312 h, evaluated after 13 days; for pest or weed control at 15.625 g/ha: 15.625 g ai/ha, read-out: Morning-glory, Ivy-leaved damage rating (100=total damage to plant; 0=no damage to plant); for pest or weed control at 62.5 g/ha: 62.5 g ai/ha, 100=total damage to plant, 0=no damage to plant, read-out: plant damage rating, Morningglory, Ivy-leaved; for pest or weed control at 250 g/ha: 250 g ai/ha, read-out: Morningglory, Ivy-leaved damage rating (100=total damage to plant; 0=no damage to plant)
Procedure, shortened: as §1

[5] = tested on: giant foxtail (Setaria faberi); test: Test G Pre-Emergence Protocol; conditions: Setaria faberi, pre-emergence, 312 h, evaluated after 13 days; for pest or weed control at 15.625 g/ha: 15.625 g ai/ha; for pest or weed control at 15.625 g/ha / pest or weed control at 250 g/ha: read-out: Foxtail, Giant damage rating (100=total damage to plant; 0=no damage to plant); for pest or weed control at 62.5 g/ha: 62.5 g ai/ha, 100=total damage to plant, 0=no damage to plant, read-out: plant damage rating, Foxtail, Giant; for pest or weed control at 250 g/ha: 250 g ai/ha
Procedure, shortened: as §1

[6] = tested on: barnyardgrass (Echinochloa crus-galli); test: Test G Pre-Emergence Protocol; conditions: Echinochloa crus-galli, pre-emergence, 312 h, evaluated after 13 days; for pest or weed control at 15.625 g/ha: 15.625 g ai/ha, read-out: Barnyard grass damage rating (100=total damage to plant; 0=no damage to plant); for pest or weed control at 62.5 g/ha: 62.5 g ai/ha, 100=total damage to plant, 0=no damage to plant, read-out: plant damage rating, Barnyardgrass; for pest or weed control at 250 g/ha: 250 g ai/ha, read-out: Barnyardgrass damage rating (100=total damage to plant; 0=no damage to plant)
Procedure, shortened: as §1

[7] = tested on: redroot pigweed (Amaranthus retroflexus); test: Test G Post-Emergence Protocol; conditions: Amaranthus retroflexus, post-emergence, 312 h; for pest or weed control at 15.625 g/ha: 15.625 g ai/ha, evaluated after 13 days (100=total damage to plant; 0=no damage to plant), read-out: Pigweed, Redroot damage rating; for pest or weed control at 62.5 g/ha: 62.5 g ai/ha, read-out: Pigweed, Redroot damage rating (100=total damage to plant; 0=no damage to plant); for pest or weed control at 62.5 g/ha / pest or weed control at 250 g/ha: evaluated after 13 days; for pest or weed control at 250 g/ha: 250 g ai/ha, read-out: damage to plant, Pigweed, Redroot (100=total damage to plant; 0=no damage to plant)
Procedure, shortened: (§2)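 Seedlings grown 8 days in soil in a glasshouse (24/16 °C day/night, 14 h light, 65% humidity) were sprayed post-emergence with compound in acetone/water 50:50 plus 0.5% Tween 20 at 15.625, 62.5 or 250 g/ha. Damage was scored after 13 days on a 0–100 scale (100 = total damage).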

[8] = tested on: velvetleaf (Abutilon theophrasti); test: Test G Post-Emergence Protocol; conditions: Abutilon theophrasti, post-emergence, 312 h; for pest or weed control at 15.625 g/ha: 15.625 g ai/ha, evaluated after 13 days (100=total damage to plant; 0=no damage to plant), read-out: Velvetleaf damage rating; for pest or weed control at 62.5 g/ha: 62.5 g ai/ha, read-out: Velvetleaf damage rating (100=total damage to plant; 0=no damage to plant); for pest or weed control at 62.5 g/ha / pest or weed control at 250 g/ha: evaluated after 13 days; for pest or weed control at 250 g/ha: 250 g ai/ha, read-out: damage to plant, Velvetleaf (100=total damage to plant; 0=no damage to plant)
Procedure, shortened: as §2

[9] = tested on: corn (Zea mays); test: Test G Post-Emergence Protocol; conditions: Zea mays, post-emergence, 312 h; for plant injury at 15.625 g/ha: 15.625 g ai/ha, evaluated after 13 days (100=total damage to plant; 0=no damage to plant), read-out: Corn damage rating; for plant injury at 62.5 g/ha: 62.5 g ai/ha, read-out: Corn damage rating (100=total damage to plant; 0=no damage to plant); for plant injury at 62.5 g/ha / plant injury at 250 g/ha: evaluated after 13 days; for plant injury at 250 g/ha: 250 g ai/ha, read-out: damage to plant, Corn (100=total damage to plant; 0=no damage to plant)
Procedure, shortened: as §2

[10] = tested on: ivy-leaved morning glory (Ipomoea hederacea); test: Test G Post-Emergence Protocol; conditions: Ipomoea, post-emergence, 312 h; for pest or weed control at 15.625 g/ha: 15.625 g ai/ha, evaluated after 13 days (100=total damage to plant; 0=no damage to plant), read-out: Morningglory, Ivy-leaved damage rating; for pest or weed control at 62.5 g/ha: 62.5 g ai/ha, read-out: Morningglory, Ivy-leaved damage rating (100=total damage to plant; 0=no damage to plant); for pest or weed control at 62.5 g/ha / pest or weed control at 250 g/ha: evaluated after 13 days; for pest or weed control at 250 g/ha: 250 g ai/ha, read-out: damage to plant, Morningglory, Ivy-leaved (100=total damage to plant; 0=no damage to plant)
Procedure, shortened: as §2

[11] = tested on: giant foxtail (Setaria faberi); test: Test G Post-Emergence Protocol; conditions: Setaria faberi, post-emergence, 312 h; for pest or weed control at 15.625 g/ha: 15.625 g ai/ha, evaluated after 13 days (100=total damage to plant; 0=no damage to plant), read-out: Foxtail, Giant damage rating; for pest or weed control at 62.5 g/ha: 62.5 g ai/ha, read-out: Foxtail, Giant damage rating (100=total damage to plant; 0=no damage to plant); for pest or weed control at 62.5 g/ha / pest or weed control at 250 g/ha: evaluated after 13 days; for pest or weed control at 250 g/ha: 250 g ai/ha, read-out: damage to plant, Foxtail, Giant (100=total damage to plant; 0=no damage to plant)
Procedure, shortened: as §2

[12] = tested on: barnyardgrass (Echinochloa crus-galli); test: Test G Post-Emergence Protocol; conditions: Echinochloa crus-galli, post-emergence, 312 h; for pest or weed control at 15.625 g/ha: 15.625 g ai/ha, evaluated after 13 days (100=total damage to plant; 0=no damage to plant), read-out: Barnyardgrass damage rating; for pest or weed control at 62.5 g/ha: 62.5 g ai/ha, read-out: Barnyardgrass damage rating (100=total damage to plant; 0=no damage to plant); for pest or weed control at 62.5 g/ha / pest or weed control at 250 g/ha: evaluated after 13 days; for pest or weed control at 250 g/ha: 250 g ai/ha, read-out: damage to plant, Barnyardgrass (100=total damage to plant; 0=no damage to plant)
Procedure, shortened: as §2

| SMILES | pest or weed control at 15.625 g/ha [1] [%] | pest or weed control at 62.5 g/ha [1] [%] | pest or weed control at 250 g/ha [1] [%] | pest or weed control at 15.625 g/ha [2] [%] | pest or weed control at 62.5 g/ha [2] [%] | pest or weed control at 250 g/ha [2] [%] | plant injury at 15.625 g/ha [3] [%] | plant injury at 62.5 g/ha [3] [%] | plant injury at 250 g/ha [3] [%] | pest or weed control at 15.625 g/ha [4] [%] | pest or weed control at 62.5 g/ha [4] [%] | pest or weed control at 250 g/ha [4] [%] | pest or weed control at 15.625 g/ha [5] [%] | pest or weed control at 62.5 g/ha [5] [%] | pest or weed control at 250 g/ha [5] [%] | pest or weed control at 15.625 g/ha [6] [%] | pest or weed control at 62.5 g/ha [6] [%] | pest or weed control at 250 g/ha [6] [%] | pest or weed control at 15.625 g/ha [7] [%] | pest or weed control at 62.5 g/ha [7] [%] | also measured |
| --- | --- | --- | --- | --- | --- | --- | --- | --- | --- | --- | --- | --- | --- | --- | --- | --- | --- | --- | --- | --- | --- |
| C=Cc1ccc([C@H]2CN(C)C(=O)[C@@H]2C(=O)Nc2ccccc2F)cc1 (racemic) [Compound 1457] | 0 | 0 | 0 | 0 | 0 | 0 | 0 | 0 | 0 | 0 | 0 | 0 | 0 | 20 | 90 | 0 | 0 | 50 | 0 | 0 | pest or weed control at 250 g/ha [7]: 0%; pest or weed control at 15.625 g/ha [8]: 0%; pest or weed control at 62.5 g/ha [8]: 0%; pest or weed control at 250 g/ha [8]: 0%; plant injury at 15.625 g/ha [9]: 0%; plant injury at 62.5 g/ha [9]: 0%; plant injury at 250 g/ha [9]: 10%; pest or weed control at 15.625 g/ha [10]: 0%; pest or weed control at 62.5 g/ha [10]: 0%; pest or weed control at 250 g/ha [10]: 20%; pest or weed control at 15.625 g/ha [11]: 0%; pest or weed control at 62.5 g/ha [11]: 20%; pest or weed control at 250 g/ha [11]: 50%; pest or weed control at 15.625 g/ha [12]: 0%; pest or weed control at 62.5 g/ha [12]: 10%; pest or weed control at 250 g/ha [12]: 10% |
| CCc1nccc(NC(=O)[C@@H]2C(=O)N(C)C[C@H]2c2ccc(C(F)(F)F)cc2)c1Cl (racemic) [Compound 1538] | 0 | 0 | 0 | 0 | 0 | 0 | 0 | 0 | 0 | 0 | 0 | 70 | 0 | 20 | 60 | 0 | 30 | 50 | 0 | 0 | pest or weed control at 250 g/ha [7]: 0%; pest or weed control at 15.625 g/ha [8]: 0%; pest or weed control at 62.5 g/ha [8]: 0%; pest or weed control at 250 g/ha [8]: 0%; plant injury at 15.625 g/ha [9]: 0%; plant injury at 62.5 g/ha [9]: 0%; plant injury at 250 g/ha [9]: 10%; pest or weed control at 15.625 g/ha [10]: 0%; pest or weed control at 62.5 g/ha [10]: 0%; pest or weed control at 250 g/ha [10]: 0%; pest or weed control at 15.625 g/ha [11]: 10%; pest or weed control at 62.5 g/ha [11]: 30%; pest or weed control at 250 g/ha [11]: 50%; pest or weed control at 15.625 g/ha [12]: 0%; pest or weed control at 62.5 g/ha [12]: 0%; pest or weed control at 250 g/ha [12]: 10% |

Source: patent US12077503B2, “Substituted cyclic amides and their use as herbicides” (FMC CORPORATION, priority 2015, dated 2024)
